According to the NIST ThermoML archive (doi:10.1021/acs.jced.8b01165):
Numbers after ± are expanded uncertainties.

What was measured:
[1] = Crystal; DSC
[2] = Molar enthalpy of transition or fusion; conditions: Crystal; DSC

SMILES: C=C(C)C1Cc2c(ccc3c2OC2COc4cc(OC)c(OC)cc4C2C3=O)O1 (configuration not stated)
- Triple point temperature [1]: 435.89 ± 1 K
- Molar enthalpy of transition or fusion [2]: 6.8 ± 0.203 kcal/mol
